Reference: US12239643B2, “Therapeutic agent for inflammatory diseases, autoimmune diseases, fibrotic diseases, and cancer diseases” (MEIJI SEIKA PHARMA CO., LTD., priority 2018, dated 2025)

Columns and labels:
Format in all cases: cell-based
IL-17A [1] = test: Cytokine suppression using whole human blood: IL-17A (phytohaemagglutinin stimulus); details: read-out: IL-17A Inhibitory Activity, Human Whole Blood (Test Example 3)
Experimental: The test compound dissolved in dimethyl sulfoxide was added to a 96-well plate, and RPMI-1640 medium and human peripheral blood containing sodium heparin were added, followed by culture at 37° C. under 5% CO2 for 1 hour. A medium containing only dimethyl sulfoxide instead of the test compound was added to the control well. […]
After collecting the culture supernatant after culturing, the amount of each cytokine was measured by the sandwich ELISA method. […]
The measurement results obtained by measuring the TNFα inhibitory activity and IL-5 inhibitory activity (50% inhibitory concentration) of the test compounds by the above method were evaluated in accordance with the following evaluated basis; A: less than 100 nM, B: 100 nM or more and less than 500 nM, and C: 500 nM or more. In addition, the measurement results obtained by measuring the IL-17A inhibitory activity and IL-4 inhibitory activity (50% inhibitory concentration) of the test compounds were evaluated in accordance with the following evaluated basis; A: less than 500 nM, B: 500 nM or more and less than 5000 nM, and C: 5000 nM or more.

IL-17A [2] = test: Cytokine suppression using human peripheral blood mononuclear cells: IL-17A; details: human PBMC, concanavalin A 20 μg/mL; read-out: IL-17A Inhibitory Activity, Human PBMC (Test Example 4)
Experimental: (§1) First, peripheral blood mononuclear cells (PBMC) were separated from whole blood by specific gravity centrifugation. Then, the isolated peripheral blood mononuclear cells were added to RPMI-1640 medium (containing 10% fetal bovine serum, penicillin, streptomycin, L-glutamine, and 2-mercaptoethanol), and cultured in a 96-well plate at 37° C. under 5% CO2 for 0 to 1 hour. The test compound dissolved in dimethyl sulfoxide was added to each well, followed by further culture at 37° C. under 5% CO2 for 1 hour. A medium containing only dimethyl sulfoxide instead of the test compound was added to the control well. […]
(§2) The measurement results obtained by measuring the TNFα inhibitory activity and IL-5 inhibitory activity (50% inhibitory concentration) of the test compounds by the above method were evaluated in accordance with the following evaluated basis; A: less than 10 nM, B: 10 nM or more and less than 100 nM, and C: 100 nM or more. In addition, the measurement results obtained by measuring the IL-17A inhibitory activity, IL-23 inhibitory activity, IL-4 inhibitory activity, and IL-13 inhibitory activity (50% inhibitory concentration) of the test compounds were evaluated in accordance with the following evaluated basis; A: less than 500 nM, B: 500 nM or more and less than 5000 nM, and C: 5000 nM or more.

IL-5 = test: Cytokine suppression using human peripheral blood mononuclear cells: IL-5; details: human PBMC, CD3 antibody and CD28 antibody; read-out: IL-5 Inhibitory Activity, Human PBMC (Test Example 4)
Experimental: as §1, §2

Daoy (brain tumor) = test: Antitumor activity: growth inhibition of Daoy; details: Homo sapiens, 120 h, culturing for 5 days, read-out: 50% growth inhibitory concentration
Experimental: As antitumor activity, 50% growth inhibitory concentration of various cancer cells (CEM-C1 (blood cancer (leukemia)), SU-DHL-4 (blood cancer (lymphoma)), A549 (lung cancer), HCT-116 (colorectal cancer), and Daoy (brain tumor)) was calculated as follows. First, each of the above cancer cells was seeded on a 384-well plate and cultured overnight at 37° C. under 5% CO2. After that, the test compound was added at various concentrations on the next day, and each number of cells was measured after culturing for 5 days. The 50% growth inhibitory concentration was defined as the test compound concentration at which the number of cells measured is an intermediate value between the number of cells after culture for 5 days under the same conditions without the addition of the test compound and the number of cells at the time of seeding (before the start of culture). The measurement results obtained by measuring the 50% growth inhibitory concentration of the test compound by the above method were evaluated in accordance with the following evaluated basis; A: less than 10 μM, B: 10 μM or more and less than 50 μM, and C: 50 μM or more. As a result of using apremilast as the test compound, the evaluation was C in all cancer cells. On the other hand, as a result of using the compound obtained in Example 248 as the test compound, the evaluation was A in all cancer cells.

CC(C)(O)C(F)(F)Oc1ccc(-c2nccs2)c2oc(N3CC4CC(C3)N4)nc12 [Example 248, 1-((2-(3,6-Diazabicyclo[3.1.1]heptan-3-yl)-7-(thiazol-2-yl)benzo[d]oxazol-4-yl)oxy)-1,1-difluoro-2-methylpropan-2-ol]
IC50 (IL-17A [1]): < 500 nM | IC50 (IL-17A [2]): < 500 nM | IC50 (IL-5): < 10 nM | IC50 (Daoy (brain tumor)): < 10000 nM

CCOc1cc([C@@H](CS(C)(=O)=O)N2C(=O)c3cccc(NC(C)=O)c3C2=O)ccc1OC [apremilast, reference compound]
IC50 (IL-17A [1]): ≥ 5000 nM | IC50 (IL-17A [2]): 500 to 5000 nM | IC50 (IL-5): > 100 nM | IC50 (Daoy (brain tumor)): ≥ 50000 nM
